Measured values reported in ChEMBL document CHEMBL1201862, “PubChem BioAssay data set” (2004).
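Tested at 5 concentrations; 48 h exposure; 96-well plates; endpoints linearly interpolated, else capped at highest concentration. Here, GI50 denotes the concentration required for 50% inhibition of growth.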 Activity calls are given as the source filed them. Cut-off read from the data, not from the text of the source: active = GI50 up to about 1.1 µM and inactive = higher.

Assays:
Experiment in all cases: NCI anticancer screen, dose series, 48 h
DLD-1 = system: DLD-1
HCC 2998 = system: HCC 2998
HOP-62 = system: HOP-62
HT-29 = system: HT-29
KM-20L2 = system: KM-20L2
LXFL 529 = system: LXFL 529
NCI-H226 = system: NCI-H226
OVCAR-3 = system: OVCAR-3
OVCAR-5 = system: OVCAR-5
RPMI-8226 = system: RPMI-8226
SF-268 = system: SF-268
SF-295 = system: SF-295
SK-MEL-5 = system: SK-MEL-5
SNB-75 = system: SNB-75
TK-10 = system: TK-10
A498 = system: A498
MDA-MB-435 = system: MDA-MB-435
NCI/ADR-RES = system: NCI/ADR-RES
PC-3 = system: PC-3
SF-539 = system: SF-539

Measured: GI50

COc1cc2c(cc1OC)C(C1(O)CCCCC1)NCC2 (centres undefined)
inactive: DLD-1 > 100 µM | HCC 2998 > 100 µM | HOP-62 > 100 µM | HT-29 > 100 µM | KM-20L2 > 100 µM | LXFL 529 > 100 µM | NCI-H226 > 100 µM | OVCAR-3 > 100 µM | OVCAR-5 > 100 µM | RPMI-8226 > 100 µM | SF-268 > 100 µM | SF-295 > 100 µM | SK-MEL-5 > 100 µM | SNB-75 > 100 µM | TK-10 > 100 µM

CC(C)(C)OC(=O)NCC(=O)NC1c2ccsc2/C(=N/O)[C@H]1O (some centres undefined)
inactive: A498 > 100 µM | HCC 2998 93.3 µM | HOP-62 > 100 µM | HT-29 > 100 µM | MDA-MB-435 > 100 µM | NCI-H226 > 100 µM | NCI/ADR-RES > 100 µM | OVCAR-3 > 100 µM | OVCAR-5 > 100 µM | PC-3 > 100 µM | SF-295 > 100 µM | SF-539 > 100 µM | SK-MEL-5 > 100 µM | TK-10 > 100 µM

O=C1c2ccccc2OCC12OC21C=CC(Cl)=CC1 (centres undefined)
inactive: A498 20.7 µM | HCC 2998 19.1 µM | HOP-62 33.7 µM | HT-29 19.1 µM | MDA-MB-435 20.1 µM | NCI-H226 30.5 µM | NCI/ADR-RES 22.5 µM | OVCAR-3 20.5 µM | OVCAR-5 31.8 µM | PC-3 26.5 µM | RPMI-8226 14.8 µM | SF-268 35.5 µM | SF-539 52.4 µM | SK-MEL-5 13.2 µM | TK-10 33.2 µM

COc1cc(Cc2ccc3c(c2C#N)N(C)c2ccccc2S3)cc(OC)c1OC
inactive: A498 21.8 µM | DLD-1 > 100 µM | HOP-62 59.7 µM | HT-29 53.7 µM | KM-20L2 36.1 µM | LXFL 529 6.87 µM | NCI-H226 62.4 µM | OVCAR-3 18.7 µM | OVCAR-5 > 100 µM | RPMI-8226 8.39 µM | SF-268 > 100 µM | SF-295 7.53 µM | SF-539 17.8 µM | TK-10 > 100 µM

O=C(NO)c1coc2ccccc2c1=O
inactive: A498 43.2 µM | DLD-1 > 100 µM | HCC 2998 32.7 µM | HT-29 > 100 µM | KM-20L2 > 100 µM | LXFL 529 > 100 µM | OVCAR-5 > 100 µM | RPMI-8226 > 100 µM | SF-268 91.2 µM | SF-295 > 100 µM | SF-539 78.5 µM | SK-MEL-5 > 100 µM | SNB-75 41.9 µM | TK-10 35.7 µM

CS(=O)(=O)C(C#N)c1nc2ccccc2nc1Cl (centres undefined)
inactive: A498 > 28.1 µM | DLD-1 4.18 µM | HCC 2998 > 32.2 µM | HOP-62 > 100 µM | HT-29 > 100 µM | LXFL 529 > 100 µM | MDA-MB-435 > 100 µM | NCI-H226 > 100 µM | NCI/ADR-RES > 36.5 µM | OVCAR-3 > 72.1 µM | OVCAR-5 > 39.9 µM | PC-3 > 100 µM | RPMI-8226 > 100 µM | SF-268 > 74 µM | SF-295 > 100 µM | SF-539 > 28.5 µM | SNB-75 > 100 µM | TK-10 > 32.6 µM

CC(=C/c1ccccc1)/C=C1/NC(=S)N(/C=C2\C(=O)Oc3ccccc3C2=O)C1=O
inactive: A498 56.4 µM | HCC 2998 58.1 µM | HOP-62 83.2 µM | MDA-MB-435 45.1 µM | NCI-H226 67.9 µM | NCI/ADR-RES 42.2 µM | OVCAR-3 38.3 µM | OVCAR-5 > 100 µM | PC-3 96.6 µM | RPMI-8226 26.6 µM | SF-268 53.6 µM | SF-295 > 100 µM | SF-539 96.6 µM | SK-MEL-5 25.6 µM | SNB-75 > 100 µM | TK-10 40.7 µM

CN(C)c1nc(N(C)C)nc(N(C)CN(C)c2ccccc2)n1
inactive: HCC 2998 64.4 µM | HT-29 > 100 µM | LXFL 529 > 100 µM | NCI-H226 > 100 µM | OVCAR-3 > 100 µM | SF-268 > 100 µM | SF-295 > 100 µM | SF-539 > 100 µM | SK-MEL-5 88.7 µM | SNB-75 > 100 µM | TK-10 > 100 µM

Cc1cc(NS(=O)(=O)c2ccc(NC(=O)c3cccc4c(Nc5ccc(S(N)(=O)=O)cc5)c5ccccc5nc34)cc2)no1
inactive: A498 > 100 µM | DLD-1 > 100 µM | HCC 2998 > 100 µM | HOP-62 > 100 µM | HT-29 > 100 µM | LXFL 529 > 100 µM | OVCAR-3 76.2 µM | OVCAR-5 > 100 µM | RPMI-8226 87.9 µM | SF-268 > 100 µM | SF-539 73.6 µM | SNB-75 60 µM | TK-10 > 100 µM

Cc1ccccc1-c1nc2c(C(=O)NCCN(C)C)cccc2[nH]1
inactive: A498 42.3 µM | DLD-1 37.7 µM | HCC 2998 40.3 µM | HOP-62 31.5 µM | HT-29 31.8 µM | KM-20L2 25.6 µM | NCI-H226 16 µM | NCI/ADR-RES 34.3 µM | OVCAR-3 65.6 µM | OVCAR-5 40.2 µM | RPMI-8226 27.7 µM | SF-268 50.7 µM | SF-295 34.1 µM | SF-539 41.4 µM | SK-MEL-5 21.7 µM | SNB-75 39.3 µM

O=C1OC(c2ccc(O)c(F)c2)(c2ccc(O)c(F)c2)c2cccc3cccc1c23
inactive: A498 > 25 µM | HOP-62 > 25 µM | HT-29 > 25 µM | MDA-MB-435 > 25 µM | NCI-H226 > 25 µM | NCI/ADR-RES 24.7 µM | OVCAR-3 5.9 µM | OVCAR-5 > 25 µM | PC-3 3.09 µM | RPMI-8226 17.2 µM | SF-268 > 25 µM | SF-295 23.2 µM | SF-539 > 25 µM | SK-MEL-5 > 25 µM | TK-10 > 25 µM

NC(=O)Oc1ccccc1 [CARBAMIC ACID PHENYL ESTER]
inactive: A498 > 100 µM | HCC 2998 > 100 µM | HT-29 > 100 µM | MDA-MB-435 > 100 µM | NCI-H226 > 100 µM | NCI/ADR-RES > 100 µM | OVCAR-3 > 100 µM | PC-3 > 100 µM | SF-268 > 100 µM | SF-295 > 100 µM | SK-MEL-5 > 100 µM | SNB-75 > 100 µM | TK-10 > 100 µM
